Data set [1] is described as follows: General solubility protocol (PBS, pH 7.4). In kind it is physicochemical. The note with it: PBS buffer, aqueous buffer, kinetic from dmso stock, pH 7.4, 25° C. The method, then: Into a 96-well rack, 15 μL of stock solution (10 mM) of each sample was placed. Into each vial of a cap-less Solubility Sample plate 485 μL of buffer was added. The assay was performed in duplicate. To each vial one stir stick was added and each vial was sealed using a molded PTFE/Silicone plug. The Solubility Sample plate was then transferred to an Eppendorf Thermomixer Comfort plate shaker and shake at 25° C. at 1100 RPM for 2 hours. […] Using a vacuum manifold, all the samples were filtered. An aliquot of 5 μL was taken from the filtrate and 5 μL blank DMSO followed by addition of 490 μL of a mixture of H2O and acetonitrile containing an internal standard (1:1). The dilution factor may be changed according to the solubility value and the LC/MS signal response.

For data set [2], the target named is human ether-a-go-go related gene (hERG) channel (Homo sapiens, UniProt Q12809). The data set is described as follows: hERG inhibition assay (SyncroPatch automated patch clamp). The method, then:
Inhibition of compounds on human ether-a-go-go related gene (hERG) channel was evaluated using a SyncroPatch 3848/384 automated patch clamp system. The SynchroPatch system is an independent method of measuring ion flux through ion channel proteins by measuring currents induced by ion flux into and out of the cell.
CHO herg-DUO cells stably expressing hERG channel were cultured in a medium containing F12 (HAM) medium, 10% FBS, 100 μg/mL penicillin-streptomycin, […] hygromycin and 100 µg/mL G418. Cells were split using TrypLE™ Express about three times a week, and maintained at about 80% confluence.
Compounds were prepared as a 50 mM stock solution in DMSO. The stock solution of each compound was serially diluted with DMSO to prepare 30 mM, 10 mM, 3.3 mM and 1.1 mM solutions. Working solutions 60 μM, 20 μM, 6.6 μM and 2.22 μM were prepared by 500-fold dilution of the […], 30 mM, 10 mM, 3.3 mM and 1.1 mM solutions, respectively using extracellular NMDG60 solution (80 mM NaCl, 60 mM N-methyl-d-glucamine, 4 mM KCl, 2 mM CaCl2, 1 mM MgCl2, 5 mM D-glucose and 10 mM HEPES).
Cells were harvested and added to SyncroPatch 384 chip (Nanion Technologies) and washed four times. Following establishment of the whole-cell voltage clamp configuration, cells were set to a holding potential of −90 mV for measured for 500 ms and currents were at 500 Hz and filtered at 3 kHz. The hERG current was elicited by depolarizing the membrane to +30 mV for 4.8 sec and the voltage was then taken back to −50 mV for 5.2 sec to remove the inactivation and measure the deactivating tail current for a sample interval of 15 s. The maximum amount of tail current size was used to determine hERG current amplitude. hERG current in the presence of test compounds was recorded for at least 5 min to reach a steady state and then 5 sweeps were captured. If a steady state was not reached within 10 minutes, the average peak current of the last 5 sweeps was substituted for the steady state value.

Data set [3] in a line: Telencephalon concentrations after oral administration. The note with it: for AUC(0-t) / Cmax: mouse, 20 mg/kg, telencephalon, female BALB/c mice, Table 8. In kind it is in vivo, female BALB/c mice.
The nature of data set [4]: Liver microsomes stability, human. In kind it is in vitro ADME. On the procedure:
A 100 μM test compound solution and PC solution (verapamil) was prepared by adding 2 μL of 10 mM stock solution in DMSO to 198 μL of 50% acetonitrile/50% water.
Two separate experiments were performed as follows:
a) With Cofactors (NADPH): 25 μL of 10 mM NADPH was added to the incubations. The final concentrations of microsomes and NADPH were 0.5 mg/mL and 1 mM, respectively.
b) Without Cofactors (NADPH): 25 μL of 100 mM Phosphate buffer was added to the incubations. The final concentration of microsomes was 0.5 mg/mL. The mixture was pre-warmed at 37° C. for 10 minutes.
The reaction was started with the addition of 2.5 μL of 100 µM control compound or test compound solutions. Verapamil was used as positive control in this study. The final concentration of test compound or control compound was 1 μM. The incubation solution was incubated in a water bath at 37° C.
Aliquots of 30 μL were taken from the reaction solution at 0.5, 15, 30, 45 and 60 minutes. The reaction was stopped by the addition of 5 volumes of cold acetonitrile with IS (100 nM alprazolam, 200 nM caffeine and 100 nM tolbutamide).
Samples were then centrifuged at 3,220 g for 40 minutes. An aliquot of 100 μL of the supernatant was mixed with 100 μL of ultra-pure H2O and then used for LC-MS/MS analysis.
Single dose PK parameters were also determined for Compound 143, a deuterated derivative of Compound 1, according to the methods described herein. […] Metabolic stability was assessed by measuring the half-life of the test compounds in human and mouse liver microsomes.

In data set [5] the test system is HCT116 colorectal cells. The experiment in a line: Cell viability assay (CellTiter-Glo) in HCT116 cells. The format is cell-based. Conditions: Homo sapiens. The method, then: HCT116 colorectal cells were used in these experiments. HCT116 cells were obtained from ATCC. The CellTiter-Glo® Luminescent Cell Viability Assay Reagent was obtained from Promega.
Into a 96-well plate, 3000 HCT116 cells were seeded with 100 μL of media (McCoy's 5A Medium supplemented with 10% FBS, 100 units penicillin, and 100 μg streptomycin per mL) 24h before the experiment. For compound treatment, the liquid handling system-Pico machine was used to prepare all the compounds. Each master plate contained serial dilution of 2 compounds, including the control compound E7820. 10 mM compound stock was added to each well of the assay plate to give final concentrations of […], 0.003, 0.002 and 0 μM. Each concentration was tested in triplicate. After 72h, cell viability was determined using CellTiter-Glo Luminescent Cell Viability Assay Reagent following the manufacturer's recommended protocol. Briefly, equilibrate the assay plate and its contents at room temperature for approximately 30 minutes. 100 μL of CellTiter-Glo reagent was added to each well of the assay plate and the contents were mixed for 2 minutes at 500 rpm on an orbital shaker to induce cell lysis (Fisherbrand). The plate was incubated at room temperature for 10 minutes to stabilize luminescent signal. Then the plate was immediately placed in a plate reader (PerkinElmer Multimode Plate Reader Envision2105) and the luminescence signal (0.5 second per well integration time) was determined. IC50 values were calculated using Graphpad Prism 9 software.
Cell viability assays were performed to compare the potency of Compound 1 to Compound 143.

[6] abbreviates: 1 μM, Table 3, read-out: Metabolic Stability Half-life, human.
Setting [7] is: Table 6, read-out: Metabolic Stability Half-life, Human.
Where [8] appears, read: HCT-116, 72h, CellTiter-Glo, read-out: HCT116 Assay (IC50).
Setting [9] is: HCT-116, FIG. 5, read-out: IC50 for inhibiting cell growth in HCT116 colorectal cells.

We go through 3 molecules from patent publication US20260116874A1, “HETEROAROMATIC INDOLESULFONAMIDES” (SEED Therapeutics, Inc., priority 2023, published 2026).

Molecules are shown by their SMILES. ≈ marks a conversion by molar mass, not a printed value. Read-outs that look alike come from different tables or passages of the source.

Chain of human ether-a-go-go related gene (hERG) channel (Q12809 whole entry): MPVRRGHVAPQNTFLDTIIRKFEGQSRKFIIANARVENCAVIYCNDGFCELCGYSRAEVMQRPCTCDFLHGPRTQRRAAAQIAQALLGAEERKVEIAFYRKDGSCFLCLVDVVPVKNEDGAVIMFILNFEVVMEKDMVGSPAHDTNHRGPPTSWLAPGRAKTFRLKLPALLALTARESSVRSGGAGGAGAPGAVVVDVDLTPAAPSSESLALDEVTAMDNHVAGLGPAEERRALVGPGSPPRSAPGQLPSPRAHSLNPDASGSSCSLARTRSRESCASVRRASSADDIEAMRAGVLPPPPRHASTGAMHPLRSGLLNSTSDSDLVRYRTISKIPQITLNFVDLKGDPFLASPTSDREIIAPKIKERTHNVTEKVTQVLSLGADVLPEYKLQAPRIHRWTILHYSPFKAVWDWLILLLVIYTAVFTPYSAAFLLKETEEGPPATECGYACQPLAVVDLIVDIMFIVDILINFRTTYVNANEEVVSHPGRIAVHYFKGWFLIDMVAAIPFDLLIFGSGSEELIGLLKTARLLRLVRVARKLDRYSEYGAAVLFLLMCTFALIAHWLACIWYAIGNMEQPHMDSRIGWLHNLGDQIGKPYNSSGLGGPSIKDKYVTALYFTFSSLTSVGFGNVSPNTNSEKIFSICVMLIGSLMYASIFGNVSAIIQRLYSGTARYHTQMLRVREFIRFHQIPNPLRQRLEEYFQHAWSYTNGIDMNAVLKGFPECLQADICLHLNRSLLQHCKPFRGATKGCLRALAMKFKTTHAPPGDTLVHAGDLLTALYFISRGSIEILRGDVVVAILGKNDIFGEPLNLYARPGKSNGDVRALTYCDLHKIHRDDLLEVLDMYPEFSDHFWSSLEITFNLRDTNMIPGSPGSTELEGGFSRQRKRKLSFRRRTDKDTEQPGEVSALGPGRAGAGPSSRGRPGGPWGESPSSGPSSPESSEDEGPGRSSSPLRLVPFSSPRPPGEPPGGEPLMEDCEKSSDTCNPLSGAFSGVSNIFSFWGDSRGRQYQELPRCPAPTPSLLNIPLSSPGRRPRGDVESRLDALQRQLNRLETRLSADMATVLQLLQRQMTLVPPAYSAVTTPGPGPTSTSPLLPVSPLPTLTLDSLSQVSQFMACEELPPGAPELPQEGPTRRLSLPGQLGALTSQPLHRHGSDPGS

Regarding `Cc1ncc(S(=O)(=O)Nc2ccc(C)c3c(C#N)c[nH]c23)s1` [Compound 1, N-(3-cyano-4-methyl-1H-indol-7-yl)-2-methyl-thiazole-5-sulfonamide], the solubility at 2 h in data set [1] was found to be 51.5 µM (≈ 17.1 µg/mL). Further, the results for the half-inhibitory concentration (IC50) in data set [2], in data set [5] (setting [8]) and in data set [5] (setting [9]) were over 50000 nM, under 500 nM and 259 nM, respectively. Further, in data set [2], the “hERG inhibition compared to E7820” value is reported as “less inhibition”. Besides, the “increase in telencephalon AUC compared to E7820” value in data set [3] (compared to E7820) came to 2 fold. The molecule also displayed an AUC(0-t) in data set [3] of 774 ng·h/mL. Besides, the peak level in data set [3] (Cmax) was 193 ng/mL. The half-life at 1 µM in data set [4] (setting [6]) and in data set [4] (setting [7]) was 1.1 h in each case.

Turning to `[2H]C([2H])([2H])c1ncc(S(=O)(=O)Nc2ccc(C)c3c(C#N)c[nH]c23)s1` [Compound 143, N-(3-cyano-4-methyl-1H-indol-7-yl)-2-(methyl-d3)thiazole-5-sulfonamide], in data set [2], the IC50 was over 50000 nM and the “hERG inhibition compared to E7820” value was “less inhibition”. In data set [3] (compared to Compound 1), the “increase in telencephalon AUC compared to Compound 1” value is given as 2.5 fold. In data set [3], the area under the curve AUC(0-t) came to 2060 ng·h/mL and the concentration peaked (Cmax) at 373 ng/mL. In data set [4] (setting [7]), the half-life at 1 µM was determined as 1.55 h. Also, the IC50 in data set [5] (setting [8]) is under 500 nM. Moreover, in data set [5] (setting [9]), the IC50 is 255 nM.

`Cc1ccc(NS(=O)(=O)c2cccc(C#N)c2)c2[nH]cc(C#N)c12` [Compound E7820, E7820, reference compound] came in with a solubility at 2 h in data set [1] of 80.7 µM (≈ 27.2 µg/mL). In data set [2], this molecule registered an IC50 of 48400 nM. The half-life at 1 µM in data set [4] (setting [6]) was 0.845 h; in data set [4] (setting [7]) it was 0.85 h.
